Measured values taken from PMC11807261 (ACS infectious diseases, 2022).
Entries after “also recorded” stand apart in the source; their conditions may differ. Where two headings read alike, the source gives them in different places.

Key:
Mtb GlnA1 = target: T1, Mtb GlnA1 (Mycobacterium tuberculosis, UniProt P9WN39); assay: biochemical
T1 construct: His6 (N); made in house; host or cells: E. coli BL21(DE3)

[1] = target: recombinant human glutamine synthetase (GS) (Homo sapiens, UniProt P15104); assay: biochemical; assay type: biochemical; conditions: for inhibition of recombinant human GS: LIN at 100 µM (Figure S7)
[2] = test system: Mtb H37Rv within THP-1 macrophages; assay type: cell-based, Mycobacterium tuberculosis
Cytotoxicity (CC50) = assay type: cell-based; conditions: African green monkey, Vero E6 cells
Mtb H37Rv = assay type: cell-based, Mycobacterium tuberculosis
THP-1 macrophages = assay type: cell-based
[3] = compounds directly from MMV Pathogen Box library plates, read-out: IC50 (μM), library
[4] = compounds resupplied from MMV, mean ± SE (n=3), read-out: IC50 (μM), resupply

recombinant human glutamine synthetase (GS), sequence (P15104 whole entry): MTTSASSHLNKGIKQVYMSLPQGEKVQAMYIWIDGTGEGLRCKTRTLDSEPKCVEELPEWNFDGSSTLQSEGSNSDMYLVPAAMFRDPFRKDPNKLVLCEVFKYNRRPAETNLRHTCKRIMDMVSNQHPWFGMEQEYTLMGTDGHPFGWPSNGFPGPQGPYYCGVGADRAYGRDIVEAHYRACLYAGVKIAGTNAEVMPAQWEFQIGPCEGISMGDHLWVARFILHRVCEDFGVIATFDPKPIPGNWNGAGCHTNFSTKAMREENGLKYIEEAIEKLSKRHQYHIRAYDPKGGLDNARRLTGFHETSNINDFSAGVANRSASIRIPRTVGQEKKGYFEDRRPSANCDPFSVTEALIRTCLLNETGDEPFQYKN
T1 sequence (P9WN39 whole entry): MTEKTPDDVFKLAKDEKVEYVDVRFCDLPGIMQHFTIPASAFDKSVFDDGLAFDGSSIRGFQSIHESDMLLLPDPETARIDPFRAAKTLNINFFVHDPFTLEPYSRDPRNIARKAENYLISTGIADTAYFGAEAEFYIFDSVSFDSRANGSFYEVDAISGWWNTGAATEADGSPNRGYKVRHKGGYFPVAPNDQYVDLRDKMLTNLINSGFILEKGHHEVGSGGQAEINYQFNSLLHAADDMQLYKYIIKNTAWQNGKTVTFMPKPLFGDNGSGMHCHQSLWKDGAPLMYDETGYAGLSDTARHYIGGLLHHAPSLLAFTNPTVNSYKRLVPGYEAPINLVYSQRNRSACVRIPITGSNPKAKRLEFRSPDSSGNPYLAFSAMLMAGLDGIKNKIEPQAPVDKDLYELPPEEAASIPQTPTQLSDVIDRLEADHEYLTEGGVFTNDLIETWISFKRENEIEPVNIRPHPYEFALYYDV

For `CP(=O)(O)CCC(N)C(=O)O` (racemic) [PPT, DL-phosphinothricin], the IC50 (Mtb GlnA1) was 4.45 ± 0.19 µM.
For `COc1ccc2cc(-c3nc(C(C)(C)C)[nH]c3-c3ccnc(N)c3)ccc2c1` [11a], the IC50 (Mtb GlnA1) was 0.53 ± 0.027 µM, the “inhibition of recombinant human GS” value [1] was “did inhibit it considerably” and the IC50 ([1]; malachite green assay, read-out: IC50 against human GS) was roughly 10400 nM.
With `C[C@]1(O)C[C@@H](c2nc(-c3ccc4ccc(-c5ccccc5)nc4c3)c3c(N)nccn32)C1` [LIN, linsitinib] the “intracellular Mtb killing in combination with bedaquiline (CFU)” value [2] was “eliminated more intracellular Mtb and improved the killing effect of BDQ”, the “survival of intracellular Mtb (CFU)” value [2] was “significantly decreased the survival” and the CC50 (Cytotoxicity (CC50)) was 67500 nM. The “growth inhibition concentration (GIC)” value (Mtb H37Rv) was ~ 21 μM, the “level of mTOR phosphorylation” value (THP-1 macrophages) was “reduce the level of mTOR phosphorylation” and the “level of p62 (autophagy flux)” value (THP-1 macrophages) was “seemingly reduced”. For the same molecule, the “apoptosis induction (cleaved caspase 3)” value (THP-1 macrophages; 10 μM LIN, Western blotting) was “no apoptosis induction”, the “autophagy induction (LC3B-II converted from LC3B-I)” value (THP-1 macrophages; 10 μM LIN, Western blotting) was “induced autophagy” and the “autophagosome and autolysosome forming puncta” value (THP-1 macrophages; mRFP-GFP-LC3 reporter THP-1, 10 μM LIN 24 h, Mtb-infected and uninfected) was “elevated”. For the same molecule, the “inhibition of recombinant human GS” value [1] was “did not inhibit; also recorded: does not inhibit”.
For `Cc1ccc(NC(=O)c2nc[nH]c2C(=O)Nc2nc3ccccc3[nH]2)c(C)c1` [MMV011903], the IC50 (Mtb GlnA1; [3]) was 0.78 µM and the IC50 (Mtb GlnA1; [4]) was 1.63 ± 0.2 µM.
In the case of `c1ccc(-c2nc(NC3CCCCC3)cc(C3CC3)n2)nc1` [MMV021013], the IC50 (Mtb GlnA1; [3]) is reported as 0.69 µM and the IC50 (Mtb GlnA1; [4]) is reported as 0.69 ± 0.08 µM.
For `CC(C)(CN)c1nc(-c2ccc(Cl)c(O)c2)c(-c2ccnc(N)n2)[nH]1` [MMV030734], the IC50 (Mtb GlnA1; [3]) was 1.38 µM and the IC50 (Mtb GlnA1; [4]) was 1.84 ± 0.09 µM.
`Cc1nc(-c2ccccn2)nc(N2CCC(Cc3ccccc3)C2)c1Cl` (stereo not shown) [MMV659004] showed an IC50 (Mtb GlnA1; [3]) of 1.14 µM and an IC50 (Mtb GlnA1; [4]) of 0.66 ± 0.04 µM.
